Experiment [1] concerns the target T1, 53BP1^TT (tandem Tudor domain of 53BP1, residues 1481–1603) (Homo sapiens, UniProt Q12888).
T1 construct: The tandem Tudor domain of 53BP1 (53BP1^TT, residues 1481–1603) was purified as previously described; made in house; host or cells: E. coli (only for the SAXS sample)
The experiment in a line: Isothermal titration calorimetry (ITC) of small molecules with 53BP1TT. The format is binding. The note with it: 25 °C, 50 mM Tris-HCl pH 7.5, 50 mM NaCl, one-site model; read-out: Kd (apparent, ITC). The protocol:
The ITC measurements were performed at 25 °C using a MicroCal iTC200 calorimeter. 53BP1^TT and the small molecules (UNC2991, UNC3351, UNC3474) were in 50 mM Tris-HCl, pH 7.5, 50 mM NaCl. In a typical run, 53BP1^TT was in the reaction cell at a concentration of 150 to 160 μM while the small molecule, in the titration syringe at a concentration of 0.8–2 mM, was delivered as 2 μL injections every 3 min. The titrations were paired with control experiments for heat of dilution. The titration of 53BP1^TT with UNC1118 was performed using a MicroCal VP-ITC calorimeter. ITC data were fitted to a one-site model using a Levenberg-Marquardt non-linear regression algorithm programmed in the Origin 7.0 software.
Supplementary Figure 1 | Interaction of 53BP1TT with small molecules probed using isothermal titration calorimetry (ITC) and small-angle X-ray scattering (SAXS). a, ITC of the interaction of UNC2991, UNC3351 and UNC3474 with 53BP1TT. Raw titration data and integrated heat measurements are shown. Indicated apparent Kds with associated standard deviations were determined by nonlinear least-squares analysis.
1.33 and 2 mg/mL with an exposure time of 0.5 s, without and with 10-fold molar excess of UNC1118 or UNC3474. The error bars in the scattering curves were generated using PRIMUS in the data analysis software ATSAS 2.4.2 and represent mean ± standard deviation calculated from signal intensity scaling and merging for the three different 53BP1TT concentrations. The Guinier plots, dimensionless Kratky plots and pair distance distribution functions derived from the SAXS data are shown. Also shown are the crystal structures of 53BP1TT and 53BP1TT-UNC3474 overlaid to the corresponding SAXS-based ab initio molecular envelopes generated using GASBOR 2.3i. c, Interaction of UNC1118 with 53BP1TT characterized using ITC (left) and NMR spectroscopy (right).
For the ITC, raw titration data and integrated heat measurements are shown. The indicated Kd with associated standard deviation was determined by nonlinear least-squares analysis.
(1 picture or pasted object on this page, not shown here)
On the technique in general: Isothermal titration calorimetry measures the heat released or taken up as one component is titrated into another.

For experiment [2], the target named is T2, 53BP1^TT-CC (E1549C/E1567C) (Homo sapiens, UniProt Q12888, E1549C/E1567C).
T2 construct: The tandem Tudor domain of 53BP1 (53BP1^TT, residues 1481–1603) was purified as previously described; made in house
The experiment in a line: 1H-15N HSQC NMR of 15N-labeled 53BP1TT-CC with UNC3474, with and without DTT. The format is binding. The protocol: Fig. 4 Engineering of a disulfide-crosslinked 53BP1^TT homodimer that binds UNC3474. a Sedimentation velocity analysis of 53BP1^TT-CC (20 μM) in the presence and absence of 10 mM DTT. b Crystal structure of 53BP1^TT-CC (blue and orange) showing the two disulfide bridges overlaid to the crystal structure of 53BP1^TT-UNC3474 (UNC3474 omitted) in gray. c Effects of adding 2 mM DTT and UNC3474 on the ^1H-^15N HSQC spectrum of ^15N-labeled 53BP1^TT-CC (1:1 UNC3474:53BP1^TT-CC molar ratio).
All NMR data were collected at 25 °C on a 700 MHz Bruker Avance III spectrometer equipped with a cryoprobe. Data were processed and analyzed with NMRPipe[54] and NMRViewJ[55],[56].

Experiment [3] concerns 53BP1^FFR-PN IRIF in U2OS cells. Kind of experiment: 53BP1FFR ionizing radiation-induced foci (IRIF) formation, immunofluorescence, PN mutant. The format is cell-based, Homo Sapiens. The note with it: 1 Gy X-ray, different concentrations of UNC3474. The text has this:
The foci-forming region (FFR; residues 1220–1711) of wild-type 53BP1 and mutants E1549P/D1550N (53BP1^FFR-PN) and E1549C/E1567C (53BP1^FFR-CC) were inserted into the retroviral vector POZ. The primers used to introduce the E1549P/D1550N mutations are: […] (forward) and […] (reverse). The primers used to introduce the E1549C/E1567C mutations are: […] (forward) and […] (reverse). The 53BP1^FFR constructs were stably expressed at a moderate level in U2OS cells. To probe the effect of UNC3474 on 53BP1^FFR IRIF formation, U2OS cells were grown on glass coverslips, pre-incubated for 1 h with various concentrations of UNC3474 and exposed to 1 Gy of X-ray radiation. After 1 h, the cells were fixed in 4% formaldehyde in PBS for 15 min at room temperature and blocked and permeabilized for 1 h in PBS containing 0.3% Triton X-100, 1% BSA, 10% fetal bovine serum. […]
Cell samples were subjected to z-stack scanning with a total depth of 5 μm to comprehensively capture all 53BP1^FFR and γH2A.X IRIF within the cell nuclei, which were fluorescently labeled with DAPI. […] To assess the quantification of 53BP1^FFR and γH2A.X foci per nuclei, a customized CellProfiler (version 3.0)[68] pipeline was employed. […]

T2 sequence (Q12888 1481-1603 E1549C/E1567C): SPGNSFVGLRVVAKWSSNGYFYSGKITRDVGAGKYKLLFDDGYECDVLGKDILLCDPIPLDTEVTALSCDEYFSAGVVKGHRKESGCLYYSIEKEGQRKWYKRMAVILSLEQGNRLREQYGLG
T1 sequence (Q12888 1481-1603): as the sequence (Q12888 1481-1603 E1549C/E1567C) above, with C69E, C87E counted along it

Regarding `CC(C)c1cccc(C(=O)NCCCNC(C)(C)C)c1` [UNC3474], in experiment [1], the Kd came out at 1000 ± 300 nM. The “affinity of reduced monomeric 53BP1TT-CC” value in experiment [2] (with DTT (2 mM)) is “no affinity”. Moreover, the “effect on 1H-15N HSQC spectra of 53BP1TT-CC (disulfide-crosslinked dimer)” value in experiment [2] (without DTT, 1:1 UNC3474:53BP1TT-CC molar ratio) was “splitting of several NMR signals”. The “53BP1FFR-PN IRIF” value in experiment [3] was “no significant change”.

Source of the values: publication PMC10541411 (Nature Communications, 2023).
